Columns and labels:
[1] = biological target: Norepinephrine transporter (Rattus norvegicus, UniProt Q9WTR4); assay: Inhibition of [3H]-NE reuptake at Norepinephrine transporter in rat parietal/occipital cortex
[2] = biological target: Sodium-dependent serotonin transporter (Rattus norvegicus, UniProt P31652); assay: Inhibition of [3H]5-HT reuptake at serotonin transporter in rat mid brain
[3] = biological target: Sodium-dependent dopamine transporter (Rattus norvegicus, UniProt P23977); assay: Inhibition of [3H]DA reuptake at dopamine transporter in rat striatum; assay type: tissue-based
[4] = biological target: Monoamine transporters; Norepinephrine & serotonin (Rattus norvegicus) (UniProt P31652+Q9WTR4); assay: Relative reuptake inhibition at norepinephrine and serotonin transporters; assay type: protein assay

Chain of Norepinephrine transporter (Q9WTR4 whole entry): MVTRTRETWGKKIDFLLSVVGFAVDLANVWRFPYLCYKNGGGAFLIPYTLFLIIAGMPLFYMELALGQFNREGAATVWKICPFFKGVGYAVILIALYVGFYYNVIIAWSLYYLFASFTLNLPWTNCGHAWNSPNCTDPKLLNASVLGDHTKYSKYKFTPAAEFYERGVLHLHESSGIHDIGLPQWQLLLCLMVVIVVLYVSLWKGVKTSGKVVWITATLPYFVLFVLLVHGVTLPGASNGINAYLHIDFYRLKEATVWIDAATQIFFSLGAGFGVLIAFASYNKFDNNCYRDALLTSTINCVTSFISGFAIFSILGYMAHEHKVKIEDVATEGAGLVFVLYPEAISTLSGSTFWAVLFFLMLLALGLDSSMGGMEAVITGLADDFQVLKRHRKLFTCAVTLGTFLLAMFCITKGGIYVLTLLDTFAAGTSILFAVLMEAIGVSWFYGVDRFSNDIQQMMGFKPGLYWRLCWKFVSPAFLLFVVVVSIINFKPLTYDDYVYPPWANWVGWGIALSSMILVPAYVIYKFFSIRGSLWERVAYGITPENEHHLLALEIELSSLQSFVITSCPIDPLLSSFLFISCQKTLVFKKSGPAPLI
Chain of Sodium-dependent dopamine transporter (P23977 whole entry): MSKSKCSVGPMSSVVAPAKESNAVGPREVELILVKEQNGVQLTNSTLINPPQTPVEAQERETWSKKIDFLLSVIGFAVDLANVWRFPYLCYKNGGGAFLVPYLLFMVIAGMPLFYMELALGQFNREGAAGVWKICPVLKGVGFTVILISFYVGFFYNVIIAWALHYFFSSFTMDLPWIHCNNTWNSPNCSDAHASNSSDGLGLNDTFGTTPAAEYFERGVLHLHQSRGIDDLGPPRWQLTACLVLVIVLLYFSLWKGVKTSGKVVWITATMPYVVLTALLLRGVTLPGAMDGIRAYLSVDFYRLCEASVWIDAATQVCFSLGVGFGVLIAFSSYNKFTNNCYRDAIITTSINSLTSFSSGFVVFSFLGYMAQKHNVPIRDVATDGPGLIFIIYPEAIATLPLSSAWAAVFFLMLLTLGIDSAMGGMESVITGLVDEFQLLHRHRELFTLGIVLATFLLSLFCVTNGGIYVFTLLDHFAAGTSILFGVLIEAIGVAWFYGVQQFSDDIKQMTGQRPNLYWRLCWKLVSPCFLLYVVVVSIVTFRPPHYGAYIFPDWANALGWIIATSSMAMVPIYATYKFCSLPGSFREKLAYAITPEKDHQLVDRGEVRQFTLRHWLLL
Chain of Sodium-dependent serotonin transporter (P31652 whole entry): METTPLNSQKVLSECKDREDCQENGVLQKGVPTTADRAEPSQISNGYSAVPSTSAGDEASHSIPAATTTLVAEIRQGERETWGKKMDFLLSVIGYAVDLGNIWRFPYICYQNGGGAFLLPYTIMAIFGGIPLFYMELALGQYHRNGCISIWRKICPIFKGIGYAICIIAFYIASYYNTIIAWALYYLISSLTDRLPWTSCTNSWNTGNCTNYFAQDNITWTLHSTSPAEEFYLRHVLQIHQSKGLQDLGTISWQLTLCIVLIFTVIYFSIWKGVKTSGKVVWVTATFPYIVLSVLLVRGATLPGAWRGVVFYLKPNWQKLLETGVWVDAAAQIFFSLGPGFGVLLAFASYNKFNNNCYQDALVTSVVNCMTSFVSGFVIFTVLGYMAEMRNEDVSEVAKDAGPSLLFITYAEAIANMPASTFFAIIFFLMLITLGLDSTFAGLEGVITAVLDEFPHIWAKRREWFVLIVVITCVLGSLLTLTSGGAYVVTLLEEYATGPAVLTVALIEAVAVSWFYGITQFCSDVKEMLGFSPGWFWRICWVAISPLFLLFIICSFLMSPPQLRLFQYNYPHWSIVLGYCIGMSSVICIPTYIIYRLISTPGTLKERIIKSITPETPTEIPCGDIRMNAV

| SMILES | Ki [1] | Ki [2] | Ki [3] | Ratio [4] |
| --- | --- | --- | --- | --- |
| CC(C)(C)C(=O)OCC1C2CC3CCC1N3C/C2=C\c1cccs1 (stereo unspecified) | 1180 nM | 168 nM | 1020 nM |  |
| CC(=O)NCC1C2CC3CCC1N3C/C2=C\c1cccs1 (stereo unspecified) | 2430 nM | 13300 nM | 6140 nM |  |
| CC(=O)OCC1C2CC3CCC1N3C/C2=C\c1cccs1 (stereo unspecified) | 283 nM | 1530 nM | 610 nM |  |
| OCC1C2CC3CCC1N3C/C2=C\c1cccs1 (stereo unspecified) | ~300 nM | ~1000 nM | ~3000 nM | 0.3 |
| CC(C)OC(=O)C1C2CC3CCC1N3C/C2=C\c1cccs1 (stereo unspecified) | 52.3 nM | 1150 nM | 428 nM |  |
| COC(=O)C1C2CC3CCC1N3C/C2=C\c1ccc(C)s1 (stereo unspecified) | 4.9 nM | 179 nM | 403 nM |  |
| O=C(OCC1C2CC3CCC1N3C/C2=C\c1ccc(I)c(Cl)c1)c1ccccc1 (stereo unspecified) |  | 0.06 nM |  |  |
| COC(=O)C1C2CC3CCC1N3C/C2=C\c1cccs1 (stereo unspecified) | 26.4 nM | 2050 nM | 268 nM |  |
| O=C(OCC1C2CC3CCC1N3C/C2=C\c1cccs1)c1ccc2ccccc2c1 (stereo unspecified) | 1230 nM | 169 nM | 1680 nM |  |
| O=C(OCC1C2CC3CCC1N3C/C2=C\c1cccs1)c1ccccc1 (stereo unspecified) | 894 nM | 1.53 nM | 1750 nM |  |
| CC(C)(C)OC(=O)NCC1C2CC3CCC1N3C/C2=C\c1cccs1 (stereo unspecified) | 1700 nM | 2360 nM | 2300 nM |  |
| COC(=O)C1C2CC3CCC1N3C/C2=C\c1ccc(I)s1 (stereo unspecified) | 5 nM | 29 nM | 368 nM |  |
| O=C(OCC1C2CC3CCC1N3C/C2=C\c1ccc(I)cc1)c1ccccc1 (stereo unspecified) |  | 0.1 nM |  |  |

Source: ChEMBL document CHEMBL1135278, “Thiophene derivatives: a new series of potent norepinephrine and serotonin reuptake inhibitors” (Bioorg Med Chem Lett, 2002)
